From patent US8076315B2, “Pharmacological treatments for sleep disorders (apnoe) with prostanoid receptor antagonists” (The Board of Trustees of the University of Illinois, priority 2005, dated 2011)

Legend:
[1] = tested on: sleep apnea in OSAS patients; conditions: cited from earlier work
[2] = tested on: spontaneous sleep apnea in the rat; experiment: spontaneous sleep apnea model in the rat (plethysmography with EEG/EMG recording); format: in vivo; conditions: for efficacy against sleep apnea (rate of apneas per hour of NREM and REM sleep, 6 hours of polygraphic recording): systemic injection 15 min before recording, Example 2, described as results that can be obtained
Protocol: Adult, male Sprague-Dawley rats (obtained from Sasco-King, Wilmington, Mass.; usually 8 per test group; average weight=300 g) are maintained on a 12-hour light (08:00-20:00 hour)/12-hour dark (20:00-08:00 hour) cycle for one week, housed in individual cages and given ad libitum access to food and water. Following the one week of acclimatization, animals are subjected to the following surgical procedures.
Acclimatized animals are anesthetized using a mixture of ketamine […] and xylazine (5 mg/kg) at a volume of 1 ml/kg body weight for the implantation of cortical electrodes for electroencephalogram (EEG) recording and neck muscle electrodes for electromyogram (EMG) recording. The surface of the skull is exposed surgically and cleaned with a 20% solution of hydrogen peroxide followed by a solution of 95% isopropyl alcohol. Next, a dental preparation of sodium fluoride (Flura-GEL®, Saslow Dental, Mt. Prospect, Ill.) is applied to harden the skull above the parietal cortex and allowed to remain in place for 5 minutes. The fluoride mixture is then removed from the skull above the parietal cortex. The EEG electrodes consisting of four stainless steel machine screws, having leads attached thereto, are threaded into the skull to rest on the dura over the parietal cortex. A thin layer of Justi® resin cement (Saslow Dental, Mt. Prospect, Ill.) is applied to cover the screw heads (of screws implanted in the skull) and surrounding skull to further promote the adhesion of the implant. EMG electrodes consisting of two ball-shaped wires are inserted into the bilateral neck musculature. All leads (i.e., EEG and EMG leads) are soldered to a miniature connector (39F1401, Newark Electronics, Schaumburg, Ill.). Lastly, the entire assembly is fixed to the skull with dental cement.
After surgery, all animals are allowed to recover for one week before being recorded for sleep and breathing.
Physiological parameters (see below) from each animal prepared as set forth in Example 1 are recorded on 2 occasions in random order, with recordings for an individual animal separated by at least 3 days. Fifteen minutes prior to each recording an animal receives a systemic injection (1 ml/kg intraperitoneal bolus) of either saline (control) or an active dose of a drug treatment.
Respiration is recorded by placing each animal, unrestrained, inside a single chamber plethysmograph (PLYUN1R/U; Buxco Electronics, Sharon, Conn.; dimension 6 in. ×10 in.×6 in.) ventilated with a bias flow of fresh room air at a rate of 2 L/min. A cable plugged onto the animal's connector and passed through a sealed port is used to collect the bioelectrical activity from the head implant.
Sleep and waking states are assessed using software developed by Benington et al. (1994, Sleep 17: 28-36) to analyze the biparietal EEG and nuchal EMG signals on 10-second epochs. This software discriminates wakefulness (W) as a high frequency low amplitude EEG with a concomitant high EMG tone, NREM sleep by increased spindle and […] together with decreased EMG tone, and REM sleep by a low ratio of a delta to theta activity and an absence of EMG tone. Sleep efficiency is measured as the percentage of total recorded epochs staged as NREM or REM sleep.
An accepted physiological animal model of spontaneous sleep apnea in the rat (see Radulovacki & Carley, 2002, in SLEEP-RELATED BREATHING DISORDERS: EXPERIMENTAL MODELS AND THERAPEUTIC POTENTIAL, (Carley & Radulovacki, eds.), Marcel Dekker: New York, pp. 3-16) is used to assess the effects of test drugs. More specifically, sleep apneas, defined as cessation of respiratory effort for at least 2.5 seconds, are scored for each recording session and associated with the stage of sleep in which they occur (i.e., NREM or REM sleep). The duration requirement of 2.5 seconds represents at least 2 “missed” breaths, which is therefore analogous to a 10 second apnea duration requirement in humans, which also reflects 2-3 missed breaths. […]

[3] = tested on: central apneas during all sleep stages; conditions: rats with frequent central apneas; cited from earlier work

Row | Molecule | efficacy against sleep apnea (rate of apneas per hour of NREM and REM sleep, 6 hours of polygraphic recording) [2] | apnea frequency [3] | other results
1 | O=C1CC2(CCCC2)CC(=O)N1CCCCN1CCN(c2ncccn2)CC1 [Buspirone] |  |  | patients with reduced apnea index ([1]; patients with sleep apnea syndrome (Mendelson et al., 1991)): 4 of 5
2 | CCCCCNC(=O)c1coc([C@H]2[C@@H](Cc3ccccc3CCC(=O)O)[C@@H]3CC[C@H]2O3)n1 [Ifetroban] | dose-dependent efficacy |  | 
3 | COc1cc(N)c(Cl)cc1C(=O)N[C@H]1CN2CCC1CC2 [R-zacopride] |  | reduce apnea frequency | 
4 | CC(=O)NNC(=O)N1Cc2ccccc2Oc2ccc(Cl)cc21 [SC19220] |  |  | animals in which apnea was eliminated throughout the 6-hour recording ([2]; intraperitoneal injection, 0.005 mg/kg, 4 test animals): 2 of 4; average reduction of apnea frequency with respect to placebo (DMSO) control injection ([2]; intraperitoneal injection, 0.005 mg/kg, 4 test animals, 6-hour recording): 64%
5 | CN1CCN2c3ncccc3Cc3ccccc3C2C1 (stereo not drawn) [mirtazapine] |  | reduce apnea frequency | reduction of apnea frequency ([1]; one study of OSAS patients): 50%
6 | Cc1nccn1CC1CCc2c(c3ccccc3n2C)C1=O (stereo not drawn) [ondansetron] |  | reduce apnea frequency | effect on sleep apnea ([1]; another study of OSAS patients): failed to demonstrate any effect
7 | O=C(O)CCn1c2c(c3ccccc31)C[C@H](NS(=O)(=O)c1ccc(F)cc1)CC2 [ramatroban] | dose-dependent efficacy |  | 
8 | diphloretin phosphate | dose-dependent efficacy |  | 
9 | polyphloretin phosphate | dose-dependent efficacy |  | 
